Test results published in ChEMBL document CHEMBL1201861, “Genomics of Drug Sensitity in Cancer screening data, Wellcome Trust Sanger Institute”.

Key:
Assay in all cases: cells
JEG-3 = format: functional, cell-based, Homo sapiens; details: Homo sapiens, JEG-3;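 further: growth inhibition of human JEG-3 cells, read out with a cell viability assay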
Description: SANGER: Inhibition of human JEG-3 cell growth in a cell viability assay.

SNB-75 = format: functional, cell-based, Homo sapiens; details: Homo sapiens, SNB-75;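 further: cell viability assay measuring growth inhibition of human SNB-75 cells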
Description: SANGER: Inhibition of human SNB75 cell growth in a cell viability assay.

NUGC-3 = format: functional, cell-based, Homo sapiens; details: Homo sapiens, NUGC-3;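 further: growth inhibition of human NUGC-3 cells, read out with a cell viability assay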
Description: SANGER: Inhibition of human NUGC-3 cell growth in a cell viability assay.

OVCAR-3 = format: functional, cell-based, Homo sapiens; details: Homo sapiens, OVCAR-3;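 further: growth inhibition of human OVCAR-3 cells, determined by a cell viability assay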
Description: SANGER: Inhibition of human OVCAR-3 cell growth in a cell viability assay.

DMS-114 = format: functional, cell-based, Homo sapiens; details: Homo sapiens, DMS-114
MHH-PREB-1 = format: functional, cell-based; details: Homo sapiens;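 further: cell viability assay measuring inhibition of proliferation of human MHH-PREB-1 cells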
Description: SANGER: Inhibition of human MHH-PREB-1 cell growth in a cell viability assay.

KM12 = format: functional, cell-based, Homo sapiens; details: Homo sapiens, KM12;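 further: KM12 cell growth inhibition, read out with a cell viability assay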
Description: SANGER: Inhibition of human KM12 cell growth in a cell viability assay.

SCH = format: functional, cell-based, Homo sapiens; details: Homo sapiens, SCH;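 further: growth inhibition of human SCH cells, read out in a cell viability assay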
Description: SANGER: Inhibition of human SCH cell growth in a cell viability assay.

M14 = format: functional, cell-based, Homo sapiens; details: Homo sapiens, M14;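 further: growth inhibition of M14 cells, read out with a cell viability assay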
Description: SANGER: Inhibition of human M14 cell growth in a cell viability assay.

MZ2-MEL = format: functional, cell-based, Homo sapiens; details: Homo sapiens, MZ2-MEL;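 further: growth inhibition of MZ2-MEL cells read out with a cell viability assay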
Description: SANGER: Inhibition of human MZ2-MEL cell growth in a cell viability assay.

KU812 cell line = format: functional, cell-based; details: Homo sapiens;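 further: growth inhibition of KU812 cells, read out with a cell viability assay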
Description: SANGER: Inhibition of human KU812 cell growth in a cell viability assay.

BV-173 = format: functional, cell-based; details: Homo sapiens
Description: SANGER: Inhibition of human BV-173 cell growth in a cell viability assay.

ES7 = format: functional, cell-based, Homo sapiens; details: Homo sapiens, ES7;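 further: growth inhibition of cultured human ES7 cells, read out as cell viability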
Description: SANGER: Inhibition of human ES7 cell growth in a cell viability assay.

LB996-RCC = format: functional, cell-based; details: Homo sapiens
Description: SANGER: Inhibition of human LB996-RCC cell growth in a cell viability assay.

LOX IMVI = format: functional, cell-based; details: Homo sapiens
Description: SANGER: Inhibition of human LOXIMVI cell growth in a cell viability assay.

NCI-H661 = format: functional, cell-based, Homo sapiens; details: Homo sapiens, NCI-H661;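 further: cell viability assay read-out, IC50 being the concentration that inhibits growth of the cells by half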
Description: SANGER: Inhibition of human NCI-H661 cell growth in a cell viability assay.

CHL-1 = format: functional, cell-based, Homo sapiens; details: Homo sapiens, CHL-1;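 further: cell growth inhibition, read out with a cell viability assay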
Description: SANGER: Inhibition of human CHL-1 cell growth in a cell viability assay.

NCI-H82 = format: functional, cell-based; details: Homo sapiens;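 further: growth inhibition of NCI-H82 cells, measured with a cell viability readout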
Description: SANGER: Inhibition of human NCI-H82 cell growth in a cell viability assay.

C32 = format: functional, cell-based, Homo sapiens; details: Homo sapiens, C32;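 further: cell viability assay, with IC50 reflecting inhibition of C32 cell growth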
Description: SANGER: Inhibition of human C32 cell growth in a cell viability assay.

CHP-212 = format: functional, cell-based, Homo sapiens; details: Homo sapiens, CHP-212
Description: SANGER: Inhibition of human CHP-212 cell growth in a cell viability assay.

SW1990 = format: functional, cell-based, Homo sapiens; details: Homo sapiens, SW1990;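 further: cell growth inhibition determined with a viability assay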
Description: SANGER: Inhibition of human SW1990 cell growth in a cell viability assay.

MFE-280 = format: functional, cell-based, Homo sapiens; details: Homo sapiens, MFE-280;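 further: growth inhibition of MFE-280 cells, determined with a cell viability readout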
Description: SANGER: Inhibition of human MFE-280 cell growth in a cell viability assay.

Lu-65 = format: functional, cell-based; details: Homo sapiens;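 further: growth inhibition of Lu-65 cancer cells, read out by a cell viability assay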
Description: SANGER: Inhibition of human LU-65 cell growth in a cell viability assay.

SW1573 = format: functional, cell-based, Homo sapiens; details: Homo sapiens, SW1573;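 further: growth inhibition of SW1573 cells, read out with a cell viability assay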
Description: SANGER: Inhibition of human SW1573 cell growth in a cell viability assay.

LB2241-RCC = format: functional, cell-based, Homo sapiens; details: Homo sapiens, LB2241-RCC;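 further: cell viability assay measuring how strongly the cultured human renal carcinoma line is prevented from growing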
Description: SANGER: Inhibition of human LB2241-RCC cell growth in a cell viability assay.

KYSE-150 cell line = format: functional, cell-based, Homo sapiens; details: Homo sapiens, KYSE-150;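 further: growth inhibition of human KYSE-150 cells, read out with a cell viability assay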
Description: SANGER: Inhibition of human KYSE-150 cell growth in a cell viability assay.

RCC10RGB = format: functional, cell-based, Homo sapiens; details: Homo sapiens, RCC10RGB;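 further: growth inhibition of human RCC10RGB cells, read out by a cell viability assay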
Description: SANGER: Inhibition of human RCC10RGB cell growth in a cell viability assay.

NCI-H1623 = format: functional, cell-based, Homo sapiens; details: Homo sapiens, NCI-H1623;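 further: cell viability assay used as the read-out for growth inhibition of NCI-H1623 cells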
Description: SANGER: Inhibition of human NCI-H1623 cell growth in a cell viability assay.

no-10 = format: functional, cell-based, Homo sapiens; details: Homo sapiens;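 further: growth inhibition of no-10 cells, read out with a cell viability assay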
Description: SANGER: Inhibition of human no-10 cell growth in a cell viability assay.

SW13 = format: functional, cell-based, Homo sapiens; details: Homo sapiens, SW13;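 further: IC50 is inhibition of SW13 cell growth, read out with a cell viability assay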
Description: SANGER: Inhibition of human SW13 cell growth in a cell viability assay.

BFTC-909 = format: functional, cell-based, Homo sapiens; details: Homo sapiens, BFTC-909
Description: SANGER: Inhibition of human BFTC-909 cell growth in a cell viability assay.

VMRC-RCZ = format: functional, cell-based; details: Homo sapiens;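 further: growth inhibition measured with a cell viability assay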
Description: SANGER: Inhibition of human VMRC-RCZ cell growth in a cell viability assay.

KALS-1 = format: functional, cell-based, Homo sapiens; details: Homo sapiens, KALS-1;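 further: growth inhibition of KALS-1 cells, determined with a cell viability assay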
Description: SANGER: Inhibition of human KALS-1 cell growth in a cell viability assay.

MDA-MB-157 = format: functional, cell-based, Homo sapiens; details: Homo sapiens, MDA-MB-157
Description: SANGER: Inhibition of human MDA-MB-157 cell growth in a cell viability assay.

L-428 = format: functional, cell-based; details: Homo sapiens
Description: SANGER: Inhibition of human L-428 cell growth in a cell viability assay.

TGW = format: functional, cell-based; details: Homo sapiens;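 further: growth inhibition of human TGW cells, read out with a cell viability assay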
Description: SANGER: Inhibition of human TGW cell growth in a cell viability assay.

HuCCT-1 = format: functional, cell-based, Homo sapiens, HuCCT1; details: Homo sapiens, HuCCT-1;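 further: growth inhibition of HuCCT-1 cells, read out by a cell viability assay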
Description: SANGER: Inhibition of human HuCCT1 cell growth in a cell viability assay.

TCC-SUP = format: functional, cell-based, Homo sapiens; details: Homo sapiens, TCC-SUP;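 further: growth inhibition of TCC-SUP cells, read out with a cell viability assay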
Description: SANGER: Inhibition of human TCCSUP cell growth in a cell viability assay.

SK-MEL-2 = format: functional, cell-based, Homo sapiens; details: Homo sapiens, SK-MEL-2;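 further: growth inhibition of human SK-MEL-2 cells measured with a cell viability assay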
Description: SANGER: Inhibition of human SK-MEL-2 cell growth in a cell viability assay.

SBC-5 = format: functional, cell-based, Homo sapiens; details: Homo sapiens, SBC-5;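 further: cell viability assay read-out, IC50 is the concentration that inhibits growth of the cells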
Description: SANGER: Inhibition of human SBC-5 cell growth in a cell viability assay.

ES4 = format: functional, cell-based, Homo sapiens; details: Homo sapiens, ES4;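 further: growth inhibition of human ES4 cells, read out by a cell viability assay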
Description: SANGER: Inhibition of human ES4 cell growth in a cell viability assay.

NCI-H226 = format: functional, cell-based, Homo sapiens; details: Homo sapiens, NCI-H226;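 further: cell viability read-out used to gauge growth inhibition of the cells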
Description: SANGER: Inhibition of human NCI-H226 cell growth in a cell viability assay.

DSH1 = format: functional, cell-based, Homo sapiens; details: Homo sapiens, DSH1;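 further: growth inhibition of human DSH1 cells, measured with a cell viability readout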
Description: SANGER: Inhibition of human DSH1 cell growth in a cell viability assay.

CAL-54 = format: functional, cell-based, Homo sapiens; details: Homo sapiens, CAL-54;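 further: growth inhibition of CAL-54 cells, read out by a viability measurement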
Description: SANGER: Inhibition of human CAL-54 cell growth in a cell viability assay.

SNU1 = format: functional, cell-based; details: Homo sapiens;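 further: growth inhibition of human NCI-SNU-1 cells, measured with a cell viability assay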
Description: SANGER: Inhibition of human NCI-SNU-1 cell growth in a cell viability assay.

SJSA-1 = format: functional, cell-based, Homo sapiens; details: Homo sapiens, SJSA-1;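 further: growth inhibition of human SJSA-1 cells, read out through a cell viability measurement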
Description: SANGER: Inhibition of human SJSA-1 cell growth in a cell viability assay.

HN = format: functional, cell-based, Homo sapiens; details: Homo sapiens, HN
Description: SANGER: Inhibition of human HN cell growth in a cell viability assay.

no-11 = format: functional, cell-based, Homo sapiens; details: Homo sapiens;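 further: growth inhibition of human NO-11 cells, read out with a cell viability assay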
Description: SANGER: Inhibition of human no-11 cell growth in a cell viability assay.

HT-1080 = format: functional, cell-based, Homo sapiens; details: Homo sapiens, HT-1080
Description: SANGER: Inhibition of human HT-1080 cell growth in a cell viability assay.

HCT-116 = format: functional, cell-based, Homo sapiens; details: Homo sapiens, HCT-116
Description: SANGER: Inhibition of human HCT-116 cell growth in a cell viability assay.

NCI-H1993 = format: functional, cell-based, Homo sapiens; details: Homo sapiens, NCI-H1993;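 further: growth inhibition of the cancer cell line, assessed with a cell viability assay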
Description: SANGER: Inhibition of human NCI-H1993 cell growth in a cell viability assay.

VM-CUB-1 = format: functional, cell-based; details: Homo sapiens;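 further: cell viability assay measuring growth inhibition of the human VM-CUB-1 cell line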
Description: SANGER: Inhibition of human VM-CUB-1 cell growth in a cell viability assay.

Q: With `C=CCNC1=C2C[C@@H](C)C[C@H](OC)[C@H](O)[C@@H](C)/C=C(\C)[C@H](OC(N)=O)[C@@H](OC)/C=C\C=C(/C)C(=O)NC(=CC1=O)C2=O` [TANESPIMYCIN] as the molecule, how does the IC50 (JEG-3) read?
A: 187 nM

Q: What about the IC50 (SNB-75) of the same molecule?
A: 122 nM

Q: What about the IC50 (NUGC-3) of the same molecule?
A: 145 nM

Q: What about the IC50 (OVCAR-3) of the same molecule?
A: 593 nM

Q: What about the IC50 (DMS-114) of the same molecule?
A: > 1000 nM

Q: And the IC50 (MHH-PREB-1)?
A: > 1000 nM

Q: What about the IC50 (KM12) of the same molecule?
A: 63.5 nM

Q: And the IC50 (SCH)?
A: > 1000 nM

Q: What about the IC50 (M14) of the same molecule?
A: 79.1 nM

Q: And the IC50 (MZ2-MEL)?
A: 65.5 nM

Q: What about the IC50 (KU812 cell line) of the same molecule?
A: 340 nM

Q: And the IC50 (BV-173)?
A: 687 nM

Q: And the IC50 (ES7)?
A: > 1000 nM

Q: What about the IC50 (LB996-RCC) of the same molecule?
A: 336 nM

Q: And the IC50 (LOX IMVI)?
A: 58.7 nM

Q: What about the IC50 (NCI-H661) of the same molecule?
A: 611 nM

Q: What about the IC50 (CHL-1) of the same molecule?
A: 22.5 nM

Q: What about the IC50 (NCI-H82) of the same molecule?
A: > 1000 nM

Q: And the IC50 (C32)?
A: 3.04 nM

Q: What about the IC50 (CHP-212) of the same molecule?
A: 26.3 nM

Q: What about the IC50 (SW1990) of the same molecule?
A: 122 nM

Q: What about the IC50 (MFE-280) of the same molecule?
A: 213 nM

Q: What about the IC50 (Lu-65) of the same molecule?
A: 926 nM

Q: And the IC50 (SW1573)?
A: 148 nM

Q: What about the IC50 (LB2241-RCC) of the same molecule?
A: 101 nM

Q: And the IC50 (KYSE-150 cell line)?
A: 52.4 nM

Q: And the IC50 (RCC10RGB)?
A: > 1000 nM

Q: What about the IC50 (NCI-H1623) of the same molecule?
A: > 1000 nM

Q: And the IC50 (no-10)?
A: > 1000 nM

Q: What about the IC50 (SW13) of the same molecule?
A: > 1000 nM

Q: And the IC50 (BFTC-909)?
A: 79.7 nM

Q: And the IC50 (VMRC-RCZ)?
A: 138 nM

Q: What about the IC50 (KALS-1) of the same molecule?
A: 114 nM

Q: What about the IC50 (MDA-MB-157) of the same molecule?
A: 181 nM

Q: And the IC50 (L-428)?
A: > 1000 nM

Q: And the IC50 (TGW)?
A: > 1000 nM

Q: What about the IC50 (HuCCT-1) of the same molecule?
A: 323 nM

Q: What about the IC50 (TCC-SUP) of the same molecule?
A: 59.6 nM

Q: What about the IC50 (SK-MEL-2) of the same molecule?
A: 90.6 nM

Q: And the IC50 (SBC-5)?
A: 201 nM

Q: What about the IC50 (ES4) of the same molecule?
A: > 1000 nM

Q: And the IC50 (NCI-H226)?
A: > 1000 nM

Q: What about the IC50 (DSH1) of the same molecule?
A: 38.1 nM

Q: And the IC50 (CAL-54)?
A: > 1000 nM

Q: What about the IC50 (SNU1) of the same molecule?
A: 2.07 nM

Q: What about the IC50 (SJSA-1) of the same molecule?
A: 318 nM

Q: And the IC50 (HN)?
A: 42.7 nM

Q: What about the IC50 (no-11) of the same molecule?
A: 370 nM

Q: What about the IC50 (HT-1080) of the same molecule?
A: 84.4 nM

Q: And the IC50 (HCT-116)?
A: 266 nM

Q: What about the IC50 (NCI-H1993) of the same molecule?
A: > 1000 nM

Q: And the IC50 (VM-CUB-1)?
A: 36.6 nM

Q: Which results are given for `Cn1cncc1[C@@](N)(c1ccc(Cl)cc1)c1ccc2c(c1)c(-c1cccc(Cl)c1)cc(=O)n2C` [TIPIFARNIB]?
A: IC50 (JEG-3): 8610 nM; IC50 (SNB-75): 9020 nM; IC50 (NUGC-3): 4190 nM; IC50 (OVCAR-3): > 16000 nM; IC50 (DMS-114): > 16000 nM; IC50 (MHH-PREB-1): 3300 nM; IC50 (KM12): 117 nM; IC50 (SCH): > 16000 nM; IC50 (M14): > 16000 nM; IC50 (MZ2-MEL): 1900 nM; IC50 (KU812 cell line): 97.1 nM; IC50 (BV-173): 2380 nM; IC50 (ES7): 1470 nM; IC50 (LB996-RCC): 7690 nM; IC50 (LOX IMVI): > 16000 nM; IC50 (NCI-H661): 7500 nM; IC50 (CHL-1): 805 nM; IC50 (NCI-H82): 9100 nM; IC50 (C32): > 16000 nM; IC50 (CHP-212): 1380 nM; IC50 (SW1990): 12400 nM; IC50 (MFE-280): > 16000 nM; IC50 (Lu-65): > 16000 nM; IC50 (SW1573): > 16000 nM; IC50 (LB2241-RCC): 6160 nM; IC50 (KYSE-150 cell line): 6200 nM; IC50 (RCC10RGB): 8490 nM; IC50 (NCI-H1623): > 16000 nM; IC50 (no-10): > 16000 nM; IC50 (SW13): 3600 nM; IC50 (BFTC-909): 8370 nM; IC50 (VMRC-RCZ): 3180 nM; IC50 (KALS-1): > 16000 nM; IC50 (MDA-MB-157): 14700 nM; IC50 (L-428): > 16000 nM; IC50 (TGW): > 16000 nM; IC50 (HuCCT-1): 4310 nM; IC50 (TCC-SUP): 5800 nM; IC50 (SK-MEL-2): 484 nM; IC50 (SBC-5): 2810 nM; IC50 (ES4): 1280 nM; IC50 (NCI-H226): > 16000 nM; IC50 (DSH1): 8530 nM; IC50 (CAL-54): 11900 nM; IC50 (SNU1): > 16000 nM; IC50 (SJSA-1): > 16000 nM; IC50 (HN): > 16000 nM; IC50 (no-11): 4010 nM; IC50 (HT-1080): 10300 nM; IC50 (HCT-116): 4880 nM; IC50 (NCI-H1993): > 16000 nM; IC50 (VM-CUB-1): 5760 nM
